Among the data in patent US20080318989A1, “Pyrimidine Kinase Inhibitors” (priority 2005, published 2008) are IC50 values, retold here.

In general, IC50 refers to the concentration that inhibits the measured activity by half. Lower therefore signals inhibition by little substance.

For the first experiment, the target named is T1, Aurora A (Homo sapiens, UniProt O14965).
T1 sequence (O14965 1-403): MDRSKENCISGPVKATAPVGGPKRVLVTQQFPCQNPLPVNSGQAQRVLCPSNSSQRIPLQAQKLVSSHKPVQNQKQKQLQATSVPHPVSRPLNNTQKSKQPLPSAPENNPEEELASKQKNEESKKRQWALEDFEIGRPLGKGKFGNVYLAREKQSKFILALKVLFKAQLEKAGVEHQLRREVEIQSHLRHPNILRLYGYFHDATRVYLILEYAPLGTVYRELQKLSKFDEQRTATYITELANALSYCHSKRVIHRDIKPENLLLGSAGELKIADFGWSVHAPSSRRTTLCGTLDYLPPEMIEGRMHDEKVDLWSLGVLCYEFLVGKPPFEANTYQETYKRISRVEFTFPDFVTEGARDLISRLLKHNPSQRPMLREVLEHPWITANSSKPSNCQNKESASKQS
The experiment in a line: Aurora A in vitro kinase assay (ELISA). Format: biochemical. Conditions: 30 μM ATP, 45 minutes. As for the experimental part:
Kinase activities were measured by Enzyme-Linked Immunosorbent Assay (ELISA): Maxisorp 384-well plates (Nunc) were coated with recombinant fusion protein comprising residues 1-15 of Histone H3 fused to the N-terminus of Glutathione-S-Transferase. Plates were then blocked with a solution of 1 mg/mL I-block (Tropix Inc) in phosphate-buffered saline. Kinase reactions were carried out in the wells of the ELISA plate by combining an appropriate amount of Aur A and B kinases and/or mutants thereof with test compound and 30 μM ATP. The reaction buffer was 1× Kinase Buffer (Cell Signaling Technologies) supplemented with 1 μg/mL I-block. Reactions were stopped after 45 minutes by addition of 25 mM EDTA. After washing, substrate phosphorylation was detected by addition of anti-phospho-Histone H3 (Ser 10) 6G3 mAb (Cell Signaling cat #9706) and sheep anti-mouse pAb-HRP (Amersham cat# NA931V), followed by calorimetric development with TMB.
(In general: An ELISA detects its analyte on a solid surface through an enzyme-linked reagent.)
Molecule `CCN1C(=O)C(C)(C)c2cc(Nc3ncc(F)c(Nc4ccc(C(=O)Nc5ccccn5)cc4)n3)ccc21` [compound 26] gave an IC50 of 23.1 nM. On the same count and under the same terms, then `CC(=O)N1CCc2cc(Nc3ncc(Cl)c(Nc4ccccc4C(=O)NC4CC4)n3)ccc21` [compound 44], with 2.1 nM. `O=C(/C=C/c1ccccc1)Nc1ccccc1Nc1nc(Nc2ccc3c(c2)CC(=O)N3)ncc1Cl` [compound 50] yielded an IC50 of 6 nM. Against the preceding molecule, the IC50 is about 2.9-fold higher. On the same count and under the same terms, then `CN1C(=O)C(C)(C)c2cc(Nc3ncc(F)c(Oc4ccc(C(=O)Nc5ccccn5)cc4)n3)ccc21` [compound 59], with 10.4 nM. Consider `CC(=O)N1CC(C)(C)c2cc(Nc3ncc(Cl)c(Nc4ccccc4C(=O)NC4CC4)n3)ccc21` [compound 48], for which the midpoint of inhibition, the IC50, lay at 24.8 nM. Same read-out and setting: then `O=C(Nc1ccccc1Nc1nc(Nc2ccc3c(c2)CS(=O)(=O)C3)ncc1Cl)C1CC1` [compound 58], with 0.6 nM; and `COCCN1C(=O)C(C)(C)c2cc(Nc3ncc(F)c(Nc4ccccc4NC(=O)C4CC4)n3)ccc21` [compound 38], with 7.2 nM; and `CCN1C(=O)C(C)(C)c2cc(Nc3ncc(F)c(Nc4ccc(C(=O)NC(C)(C)C)cc4)n3)ccc21` [compound 5], with 10.8 nM.

The test system of the next experiment is HCT116 colon cancer cell line. The experiment in a line: Cellular proliferation/viability assay (Cell-Titer-Glo), HCT116. Format: cell-based. As to conditions: Homo sapiens, HCT-116, 120 h; HCT116, 5 days incubation. Here is the method:
(§1) Potency of test compounds in inhibiting cellular proliferation and/or cellular viability was estimated using a cellular ATP assay (Cell-Titer-Glo, Promega). Cells (HCT116, HT29 colon cancer cell lines, MCF-7 breast cancer cell line) were seeded in 384-well plates (Greiner μClear) at an appropriate density in 50:50 DMEM/Hams F-12 medium supplemented with 10% fetal calf serum, and allowed to attach overnight. Test compounds were sequentially diluted in DMSO and then culture medium, and added to the cells at appropriate concentrations. Cells were incubated with compound for 5 days. Cell number/viability was estimated using Cell-Titer-Glo reagent (Promega) according to manufacturers instructions.
Molecule `CCN1C(=O)C(C)(C)c2cc(Nc3ncc(Cl)c(Nc4ccccc4NC(=O)/C=C/c4ccccc4)n3)ccc21` [compound 49] returned an IC50 of 110 nM.

Another experiment concerns HT29 colon cancer cell line. The experiment in a line: Cellular proliferation/viability assay (Cell-Titer-Glo), HT29. As to conditions: Homo sapiens, HT-29, 120 h; HT29, 5 days incubation. Format: cell-based. Here is the method: as §1
The molecule `CCN1C(=O)C(C)(C)c2cc(Nc3ncc(Cl)c(Nc4ccccc4NC(=O)/C=C/c4ccccc4)n3)ccc21` [compound 49] returned a 50% inhibitory concentration (IC50) of 100 nM. In other words, the sub-micromolar range.
